From article PMC11200585, “Prospects for Prostate Cancer Chemotherapy: Cytotoxic Evaluation and Mechanistic Insights of Quinolinequinones with ADME/PK Profile” (Biomedicines, 2024)

Tests used:
Format in all cases: cell-based, human
[1] = test system: CCRF-CEM; assay: NCI-60 one-dose screen (leukemia); settings: 10 µM single dose; for GP (growth percentage): 48 h; for inhibition at 10 µM: Homo sapiens
Protocol: (§1) The obtained quinolinequinones were submitted to NCI, Bethesda, USA, and, as per standard protocol of NCI, all compounds were evaluated for their antiproliferative activity at single-dose assay (10 µM concentration in DMSO) on a panel of 60 cancer cell lines derived from leukemia, non-small-cell lung, colon, CNS, melanoma, ovarian, renal, prostate, and breast, as per protocol. Tested compounds were added to the microtiter culture plates followed by incubation for 48 h at 37 °C. Sulforhodamine B (SRB), a protein-binding dye, is used for endpoint determination. The percent of the growth of the treated cells was determined in comparison to the untreated control cells and the results of each tested compound were reported. Data from one-dose experiments pertain to the percentage growth at 10 μM [16, 17, 18].

[2] = test system: HL-60(TB); assay: NCI-60 one-dose screen (leukemia); settings: 10 µM single dose, 48 h
Protocol: as §1

[3] = test system: K-562; assay: NCI-60 one-dose screen (leukemia); settings: for GP (growth percentage): 10 µM single dose, 48 h
Protocol: as §1

[4] = test system: MOLT-4; assay: NCI-60 one-dose screen (leukemia); settings: 10 µM single dose; for GP (growth percentage): 48 h
Protocol: as §1

[5] = test system: RPMI-8226; assay: NCI-60 one-dose screen (leukemia); settings: 10 µM single dose, 48 h
Protocol: as §1

[6] = test system: SR; assay: NCI-60 one-dose screen (leukemia); settings: 10 µM single dose, 48 h
Protocol: as §1

[7] = test system: COLO 205; assay: NCI-60 one-dose screen (colon cancer); settings: 10 µM single dose, 48 h
Protocol: as §1

[8] = test system: HCC-2998; assay: NCI-60 one-dose screen (colon cancer); settings: 10 µM single dose; for GP (growth percentage): 48 h
Protocol: as §1

[9] = test system: HCT-116; assay: NCI-60 one-dose screen (colon cancer); settings: 10 µM single dose, 48 h
Protocol: as §1

[10] = test system: HCT-15; assay: NCI-60 one-dose screen (colon cancer); settings: 10 µM single dose, 48 h
Protocol: as §1

[11] = test system: HT29; assay: NCI-60 one-dose screen (colon cancer); settings: for GP (growth percentage): 10 µM single dose, 48 h; for inhibition at 10 µM: Homo sapiens, HT-29, 10 µM single dose
Protocol: as §1

[12] = test system: KM12; assay: NCI-60 one-dose screen (colon cancer); settings: 10 µM single dose, 48 h
Protocol: as §1

[13] = test system: SW-620; assay: NCI-60 one-dose screen (colon cancer); settings: 10 µM single dose, 48 h
Protocol: as §1

[14] = test system: 786-0; assay: NCI-60 one-dose screen (renal cancer); settings: 10 µM single dose; for GP (growth percentage): 48 h
Protocol: as §1

[15] = test system: A498; assay: NCI-60 one-dose screen (renal cancer); settings: 10 µM single dose, 48 h
Protocol: as §1

[16] = test system: ACHN; assay: NCI-60 one-dose screen (renal cancer); settings: 10 µM single dose, 48 h
Protocol: as §1

[17] = test system: SN12C; assay: NCI-60 one-dose screen (renal cancer); settings: 10 µM single dose, 48 h
Protocol: as §1

[18] = test system: TK-10; assay: NCI-60 one-dose screen (renal cancer); settings: 10 µM single dose, 48 h
Protocol: as §1

[19] = test system: UO-31; assay: NCI-60 one-dose screen (renal cancer); settings: 10 µM single dose, 48 h
Protocol: as §1

[20] = test system: BT-549; assay: NCI-60 one-dose screen (breast cancer); settings: 10 µM single dose, 48 h
Protocol: as §1

[21] = test system: HL-60(TB); assay: NCI-60 five-dose assay (leukemia); settings: 48 h, SRB; for GI50 / CC50: Homo sapiens; for CC50: read-out: LC50 (the source's name)
[22] = test system: EKVX; assay: NCI-60 five-dose assay (non-small cell lung cancer); settings: 48 h, SRB; for GI50 / CC50: Homo sapiens; for CC50: read-out: LC50 (the source's name)
[23] = test system: NCI-H23; assay: as above; settings: 48 h, SRB; for GI50 / CC50: Homo sapiens; for CC50: read-out: LC50 (the source's name)
[24] = test system: NCI-H522; assay: as above; settings: 48 h, SRB; for GI50 / LC50: Homo sapiens
[25] = test system: SF-539; assay: NCI-60 five-dose assay (CNS cancer); settings: 48 h, SRB; for GI50 / LC50: Homo sapiens
[26] = test system: SNB-75; assay: NCI-60 five-dose assay (CNS cancer); settings: 48 h, SRB; for GI50 / LC50 (50% lethal concentration): Homo sapiens
[27] = test system: U251; assay: NCI-60 five-dose assay (CNS cancer); settings: SRB; for TGI: 48 h; for GI50 / LC50 (concentration killing 50% of cells): Homo sapiens, U-251, 48 h
[28] = test system: MDA-MB-435; assay: NCI-60 five-dose assay (melanoma); settings: 48 h, SRB; for GI50 / CC50: Homo sapiens; for CC50: read-out: LC50 (the source's name)
[29] = test system: UACC-257; assay: NCI-60 five-dose assay (melanoma); settings: 48 h, SRB; for GI50 / LC50 (NCI-60 lethal concentration, 50% cell kill): Homo sapiens
[30] = test system: OVCAR-4; assay: NCI-60 five-dose assay (ovarian cancer); settings: 48 h, SRB; for GI50 / LC50 (concentration killing 50% of cells): Homo sapiens
[31] = test system: 786-0; assay: NCI-60 five-dose assay (renal cancer); settings: 48 h, SRB; for GI50 / LC50: Homo sapiens
[32] = test system: RXF 393; assay: NCI-60 five-dose assay (renal cancer); settings: 48 h, SRB; for GI50 / LC50: Homo sapiens
[33] = test system: SN12C; assay: NCI-60 five-dose assay (renal cancer); settings: 48 h, SRB; for GI50 / LC50 (concentration killing 50% of starting cells): Homo sapiens
[34] = test system: TK-10; assay: NCI-60 five-dose assay (renal cancer); settings: 48 h, SRB; for GI50 / LC50 (concentration killing 50% of starting cells): Homo sapiens
[35] = test system: UO-31; assay: NCI-60 five-dose assay (renal cancer); settings: 48 h, SRB; for GI50 / LC50 (lethal concentration 50%): Homo sapiens
[36] = test system: PC-3; assay: NCI-60 five-dose assay (prostate cancer); settings: 48 h, SRB; for GI50 / CC50: Homo sapiens; for CC50: read-out: LC50 (the source's name)
[37] = test system: MCF7; assay: NCI-60 five-dose assay (breast cancer); settings: 48 h, SRB; for GI50 / LC50: Homo sapiens
[38] = test system: MDA-MB-468; assay: NCI-60 five-dose assay (breast cancer); settings: 48 h, SRB; for GI50 / LC50: Homo sapiens

CCOc1ccc(NC2=C(Cl)C(=O)c3nc(C)ccc3C2=O)cc1 [AQQ3]
GP (growth percentage) [1]: 0.63%
inhibition at 10 µM [1]: 99.4%
GP (growth percentage) [2]: −46.39%
GP (growth percentage) [3]: −4.17%
GP (growth percentage) [4]: −46.73%
GP (growth percentage) [5]: −19.35%
GP (growth percentage) [6]: −27.42%
GP (growth percentage) [7]: 98.22%
GP (growth percentage) [8]: −55.70%
GP (growth percentage) [9]: −83.64%
GP (growth percentage) [10]: −83.19%
GP (growth percentage) [11]: 15.90%
inhibition at 10 µM [11]: 84.1%
GP (growth percentage) [12]: 57.40%
GP (growth percentage) [13]: −55.33%
GP (growth percentage) [14]: 8.39%
inhibition at 10 µM ([14]; Homo sapiens): 91.6%
GP (growth percentage) [15]: 100.96%
GP (growth percentage) [16]: −98.42%
GP (growth percentage) [17]: −57.33%
GP (growth percentage) [18]: 121.08%
GP (growth percentage) [19]: −65.05%
GP (growth percentage) [20]: 46.48%
TGI [21]: 4.18 µM
GI50 [21]: 1.47 µM
CC50 [21]: > 100 µM
TGI [22]: 3.12 µM
GI50 [22]: 1.61 µM
CC50 [22]: 6.05 µM
TGI [23]: 2.85 µM
GI50 [23]: 1.35 µM
CC50 [23]: 6.03 µM
TGI [24]: 3.22 µM
GI50 [24]: 1.75 µM
LC50 [24]: 5.94 µM
TGI [25]: 3.13 µM
GI50 [25]: 1.68 µM
LC50 [25]: 5.84 µM
TGI [26]: 2.79 µM
GI50 [26]: 1.46 µM
LC50 (50% lethal concentration) [26]: 5.33 µM
TGI [27]: 3.54 µM
GI50 [27]: 1.8 µM
LC50 (concentration killing 50% of cells) [27]: 6.94 µM
TGI [28]: 1.53 µM
GI50 [28]: 0.442 µM
CC50 [28]: 3.99 µM
TGI [29]: 2.78 µM
GI50 [29]: 1.39 µM
LC50 (NCI-60 lethal concentration, 50% cell kill) [29]: 5.58 µM
TGI [30]: 2.37 µM
GI50 [30]: 1.13 µM
LC50 (concentration killing 50% of cells) [30]: 4.97 µM
TGI [31]: 3.19 µM
GI50 [31]: 1.72 µM
LC50 [31]: 5.89 µM
TGI [32]: 2.96 µM
GI50 [32]: 1.57 µM
LC50 [32]: 5.61 µM
TGI [33]: 2.99 µM
GI50 [33]: 1.58 µM
LC50 (concentration killing 50% of starting cells) [33]: 5.66 µM
TGI [34]: 3.77 µM
GI50 [34]: 2.3 µM
LC50 (concentration killing 50% of starting cells) [34]: 6.18 µM
TGI [35]: 2.75 µM
GI50 [35]: 1.43 µM
LC50 (lethal concentration 50%) [35]: 5.28 µM
TGI [36]: 2.77 µM
GI50 [36]: 1.29 µM
CC50 [36]: 5.93 µM
TGI [37]: 3.82 µM
GI50 [37]: 1.54 µM
LC50 [37]: 9.44 µM
TGI [38]: 2.92 µM
GI50 [38]: 1.49 µM
LC50 [38]: 5.75 µM

COc1cc(NC2=C(Cl)C(=O)c3nc(C)ccc3C2=O)cc(OC)c1 [AQQ5]
GP (growth percentage) [1]: 2.72%
inhibition at 10 µM [1]: 97.3%
GP (growth percentage) [2]: −13.44%
GP (growth percentage) [3]: 4.73%
inhibition at 10 µM ([3]; Homo sapiens, K562, 10 µM single dose): 95.3%
GP (growth percentage) [4]: 8.29%
inhibition at 10 µM ([4]; Homo sapiens): 91.7%
GP (growth percentage) [5]: −39.66%
GP (growth percentage) [6]: −3.19%
GP (growth percentage) [7]: −80.52%
GP (growth percentage) [8]: 14.44%
inhibition at 10 µM ([8]; Homo sapiens): 85.6%
GP (growth percentage) [9]: −97.84%
GP (growth percentage) [10]: −66.21%
GP (growth percentage) [11]: 24.91%
inhibition at 10 µM [11]: 75.1%
GP (growth percentage) [12]: 39.30%
GP (growth percentage) [13]: −90.16%
GP (growth percentage) [14]: −59.47%
GP (growth percentage) [15]: 71.10%
GP (growth percentage) [16]: −99.62%
GP (growth percentage) [17]: −63.27%
GP (growth percentage) [18]: −50.07%
GP (growth percentage) [19]: −94.65%
GP (growth percentage) [20]: 24.11%
TGI [21]: 4.65 µM
GI50 [21]: 1.38 µM
CC50 [21]: > 100 µM
TGI [22]: 3.12 µM
GI50 [22]: 1.6 µM
CC50 [22]: 6.08 µM
TGI [23]: 3.15 µM
GI50 [23]: 1.53 µM
CC50 [23]: 6.49 µM
TGI [24]: 3.06 µM
GI50 [24]: 1.56 µM
LC50 [24]: 6.02 µM
TGI [25]: 3.22 µM
GI50 [25]: 1.79 µM
LC50 [25]: 5.78 µM
TGI [26]: 5.37 µM
GI50 [26]: 1.94 µM
LC50 (50% lethal concentration) [26]: 23.2 µM
TGI [27]: 4.44 µM
GI50 [27]: 1.92 µM
LC50 (concentration killing 50% of cells) [27]: 10.8 µM
TGI [28]: 3.57 µM
GI50 [28]: 1.72 µM
CC50 [28]: 7.39 µM
TGI [29]: 2.85 µM
GI50 [29]: 1.51 µM
LC50 (NCI-60 lethal concentration, 50% cell kill) [29]: 5.37 µM
TGI [30]: 2.82 µM
GI50 [30]: 1.4 µM
LC50 (concentration killing 50% of cells) [30]: 5.66 µM
TGI [31]: 2.88 µM
GI50 [31]: 1.52 µM
LC50 [31]: 5.44 µM
TGI [32]: 2.99 µM
GI50 [32]: 1.63 µM
LC50 [32]: 5.48 µM
TGI [33]: 3.25 µM
GI50 [33]: 1.71 µM
LC50 (concentration killing 50% of starting cells) [33]: 6.19 µM
TGI [34]: 3.78 µM
GI50 [34]: 2.32 µM
LC50 (concentration killing 50% of starting cells) [34]: 6.15 µM
TGI [35]: 3.06 µM
GI50 [35]: 1.69 µM
LC50 (lethal concentration 50%) [35]: 5.53 µM
TGI [36]: 10.4 µM
GI50 [36]: 2.56 µM
CC50 [36]: 43.6 µM
TGI [37]: 5.33 µM
GI50 [37]: 1.82 µM
LC50 [37]: > 100 µM
TGI [38]: 2.57 µM
GI50 [38]: 1.23 µM
LC50 [38]: 5.37 µM
